Five compounds from patent publication US5055479A, “Method of treating cachexia” (Sankyo Company, Limited, priority 1988, dated 1991) can be followed below.

The nature of data set [1]: Acute toxicity in mice, intraperitoneal injection. Particulars: mouse, in vivo, ip. The source says: (§1) All of the compounds of formula (I) employed in the present invention have shown low toxicity and high safety, with limited side effects.
The test system of data set [2] is tumor cells, adenocarcinoma C-12G. The experiment in a line: Improving cachexia and increasing life-span of tumor bearing mice. The format is in vivo, mouse (CSF1). The source says: A mouse cachexia model was made by inoculating 6×10^5 viable tumor cells, adenocarcinoma C-12G, subcutaneously into the right axillary region of a CSF1 mouse (8-9 weeks old, female weighing 21-24 g, n=10). The viable tumor cells were counted under a microscope after staining them with 0.4% of trypan blue (Sigma Co.).
The growth of this kind of tumor, inoculated subcutaneously, causes a marked Weight loss (the weight losses of mice 16-17 days after tumor inoculation were (4.0-4.5 g), piloerection and depression of emotion and finally death.
Compound No. 1-19 (hereafter called the test compound) was suspended in saline containing 0.5% CMC (carboxymethyl cellulose) at a concentration of 4 mg/ml. The suspension was administrated orally to mice on days 1-4, 7-11, 14-24 (20 times in total) after the tumor inoculation. The status of the mice, such as weight loss. Piloerection, depression of emotion and increase in life-span, was observed.
On the other hand, for a control group of mice, saline solution containing 0.5% of CMC was given orally.
In the above, the median survival times were measured in days.

Data set [3] is described as follows: Acute toxicity in rats, subcutaneous injection. Particulars: rat, in vivo, sc.
Source text: as §1

For data set [4], the system named is plasma lipoprotein lipase. Briefly: Enhancement of plasma lipoprotein lipase activity in mice. Particulars: 9 mg/kg via tail vein, 21 hours later. The format is in vivo, mice (Balb/c). Here is the method:
Female mice (Balb/c, 10 weeks old, n=6, i.e. the number in each test group was 6) were injected with 9 mg/kg of the test compound (Compound No. 1-19) via the tail vein. Twenty one hours later, the activities of the plasma lipoprotein lipase were determined according to Vlassara's method. [Horm. Metabol. Res., 18, 698-703(1986)].
Activities of the plasma lipoprotein lipase in control mice receiving physiological saline were expressed as 100 and the relative value is shown in the following Table 5.

`Cc1nc2ccnn2c2c1CCN2Cc1ccccc1` [Compound 2-2, 8-benzyl-7,8-dihydro-5-methyl-6H-pyrazolo[1,5-a]pyrrolo[3,2-e]pyrimidine]: the LD50 in data set [1] is at least 300 mg/kg.
Still for that read-out and setting: next, `Cc1nc2ncnn2c2c1CCN2Cc1ccc(Cl)cc1` [Compound 1-54, 8-(4-chlorobenzyl)-7,8-dihydro-5-methyl-6H-pyrrolo[3,2-e][1,2,4]triazolo[1,5-a]pyrimidine]: at least 300 mg/kg.
In the case of `Cc1nc2ncnn2c2c1CCN2C(C)(C)C` [Compound 1-19, 8-t-butyl-7,8-dihydro-5-methyl-6H-pyrrolo[3,2-e][1,2,4]triazolo[1,5-a]pyrimidine], the “Median Survival time” value in data set [2] (40 mg/kg/day orally, days 1-4, 7-11, 14-24, control 28.0) worked out at 40.5 days. Moreover, the “Increase in life-span (ILS)” value in data set [2] (40 mg/kg/day orally, days 1-4, 7-11, 14-24, vs control) is 45%. Further, the “status of the mice (weight, hair retention and emotion)” value in data set [2] (oral administration, 20 times in total) is “extensive improvements in weight, hair retention and emotion”. Besides, the LD50 in data set [3] is at least 100 mg/kg. Further, the “lipoprotein lipase activity relative to control” value in data set [4] (of that of the control) was 120%. Besides, the “Relative activity of the lipoprotein lipase” value in data set [4] (saline control = 100, n = 6, mean ± standard deviation, p<0.05 vs saline) was found to be 120 ± 10.6.
Consider `COc1ccc(CN2CCc3c(C)nc4ncnn4c32)cc1` [Compound 1-49, 7,8-dihydro-8-(4-methoxybenzyl)-5-methyl-6H-pyrrolo[3,2-e][1,2,4]triazolo[1,5-a]pyrimidine], for which, in data set [1], the LD50 was at least 300 mg/kg.
Turning to `Cc1ccc(CN2CCc3c(C)nc4ncnn4c32)cc1` [Compound 1-48, 7,8-dihydro-5-methyl-8-(4-methylbenzyl)-6H-pyrrolo[3,2-e][1,2,4]triazolo[1,5-a]pyrimidine], the LD50 in data set [1] is at least 300 mg/kg.

By LD50 is commonly meant the dose expected to kill half of the subjects tested.
